According to patent publication US8232299B2, “Phthalimide derivatives that influence cellular vesicular systems, pharmaceutical compositions, and use thereof” (Avidin Kft., priority 2007, dated 2012):

Tests used:
[1] = test system: MCF7 (Human breast adenocarcinoma); assay: cytotoxic effect on breast carcinoma cell line, MTS test, 24 hours; type: cell-based; conditions: 24 hours incubation; for effect on MCF7 cells: already at 20 and 50 μM concentrations
Procedure: (§1) In these experiments HepG2 (human hepatocellular carcinoma) and MCF7 (Human breast adenocarcinoma) cells were used. They were cultured in the following media: For HepG2 Dulbecco's Modified Eagle Medium (D-MEM) (high glucose) (Gibco BRL, Carlsbad, Calif., USA), penicillin (50 IU/ml)-streptomycin ([…]), 10% fetal bovine serum; for MCF7 (Human breast adenocarcinoma) 1:1 mixture of Dulbecco's Modified Eagle Medium (D-MEM) (high glucose) (Gibco BRL, Carlsbad, Calif., USA) and Nutrient Mixture F-12 Ham (Sigma, St. Louis, Mo., USA), penicillin (50 IU/ml)-streptomycin ([…]), 10% fetal bovine serum. Experiments were performed as described in Example 9. with the difference that the incubation time was 24 hours in this case. After the incubation period MTS test (3-(4,5-dimethylthiazol-2-yl)-5-(3-carboxymethoxyphenyl)-2-(4-sulfophenyl)-2H-tetrazolium) (Promega, Madison, Wis., USA) was performed as described above.

[2] = test system: HepG2 (human hepatocellular carcinoma); assay: cytotoxic effect on hepatocellular carcinoma cell line, MTS test, 24 hours; type: cell-based; conditions: 24 hours incubation
Procedure: as §1

[3] = test system: RVH human melanoma cell line; assay: cytotoxic effect on melanoma cell line, MTS assay, 48 hours; type: cell-based; conditions: 48 hours treatment, FIG. 4
Procedure: RVH human melanoma cell line was cultured in Minimum Essential Medium Eagle (Sigma, St. Louis, Mo., USA), Na-piruvate, Glutamine, Non-essential amino acids, penicillin (50 IU/ml)-streptomycin ([…]), 10% fetal bovine serum at 37° C., in 5% CO2. Cells were trypsinized with trypsin/EDTA (Sigma-Aldrich, St. Louis, Mo.) on every second day and were passed into 60 or 100 mm plates. When the culture reached the required cell number (approx. 10^6) for the planned experiment 50.00 cell/well was plated into 24 well plates (Costar® 24 Well TC-Treated Microplates) and left overnight to adhere to the bottom of the well. Addition of the substance was performed the following way: next day the culture media was drawn from the adhered cells and media comprising compounds of the present invention in appropriate concentration and well mixed therein was pipetted (2 ml/well) onto the cells. The substance to be examined was diluted in 100% DMSO, this way an amount of DMSO corresponding to the highest concentration of the substance in a given assay were measured in the media of the control wells. After 48 hours of treatment live cells were detected by CellTiter® 96 Aqueous Non-radioactive Cell Proliferation Assay (Promega, Madison, Wis., USA) to determine the number of live cells in the treated and in the control samples.
MTS is converted to formazane in the living cells, which product is dissolved in the media, and its quantity/absorbance can be measured at 490 nm. […] Then, for the determination of the ratio of live cells 20 μl MTS and 1 μl PMS are added to 100 μl media. The enzyme reaction occurs at incubation at 37° C., 5% CO2 for 1 to 4 hours. Formazane produced by the cells is read on ELISA plate reader, from which the number of living cells can be obtained indirectly. Since the inventors performed the experiments in 24 well plates with 50.000 cell/well, the protocol had to be modified. After treatment of the cells for an appropriate time (type of compound, different concentrations), the incubation media (2 ml) containing the examined substance was removed, then 400 μl media containing reagents in the same concentration as given above (333.3 μl media, 66.6 μl MTS, and 3.3 μl PMS per well) was pipetted to the cells. To be able to use ELISA plate reader (Multiskan R C, Thermo Labsystems, Franklin, Mass., USA) 400 μl sample from each single well of the 24 well plate was pipetted into four wells of a 96 well plate (Micromethod plates 96 wells flat form) in 100 μl aliquots. That also helped to eliminate possible errors due to inconsistent pipetting. On each 24 well plate 4 wells were control samples. From these 3 times 100 μl was pipetted onto the 96 well plates, so, altogether 12 controls were provided on each 96 well plate. The remaining 4 wells were for background measurements with 100 μl media containing MTS and PMS as described above.

Rab GTPase proteins = assay: affinity chromatography of MCF-7 protein fraction with LC-MS/MS; type: binding, human; conditions: compound linked to Sepharose beads, 2 M NaCl eluate
Procedure: By using affinity chromatography we investigated which are the proteins that bind compound 5b of the invention. Compound 5b was linked to cyanobromide activated Sepharose (Amersham-Pharmacia, Sepharose 4B) beads in 6:4 DMF:water mixture for 16 hours at room temperature. 1 ml of the beads was washed with 50 ml 6:4 DMF:water mixture, and then with 50 ml 70% ethanol, then with PBS (0.01 M phosphate buffer, 0.0027 M KCl, 0.137 M NaCl, pH: 7.4). After washing the column 5 ml protein fraction of human MCF-7 breast carcinoma cells (10 million cells homogenized with Complete, Protease Inhibitor Cocktail Tablets, Roche Diagnostics GmbH) were applied onto the column. The column was washed with 20 ml 0.2 M NaCl—PBS solution, then with 15 ml 0.5 M NaCl—PBS solution and with 15 ml 0.8 M NaCl—PBS solution, then it was eluted by 2 ml 2 M NaCl—PBS. The eluate was analyzed by mass spectrometry (LC-MS/MS) to determine the proteins binding to compound 5b.
Mass spectrometry analysis was performed according to the protocol published at http://donatello.ucsf.edu/ingel.html at the time of drafting the patent application.
For the LC-MS/MS analysis 5 μl sample was injected. For the LC precolumn trap was applied: 5 min 20 μl 0.1% trifluoroacetic acid/water, then gradient elution for MS/MS analysis. Columns: Zorbax 300SB-C18, 5 μm, 5×0.3 mm; Zorbax 300SB-C18, 3.5 μm, 150×0.075 mm. […]

[4] = test system: human leukemia cells (K562); assay: leukemia survival model, K562 cells i.v.; type: in vivo, CB17/scid mice; conditions: 100 mg/kg p.o., once a day five days per week for 3 weeks from day 4; FIG. 10
Procedure: 2×10^6 human leukemia cells (K562) from in vitro cultures were injected intravenously (i.v.) into partially narcotized (diethylether narcosis) adult male CB17/scid mice, born with immunodeficiency. After tumor cell inoculation animals were randomly assigned into two groups and their ears were marked. From the 4th day after the tumor cell inoculation mice were treated once a day five days per week for 3 weeks with compound 9a (100 mg/kg), per os (p.o.) by gavage. Control animals were treated with appropriate dilution of the carrier (DMSO) similarly to the treated group with similar frequency. Body weight changes were monitored once a week for each animal according to the ear marks. Evaluation of the effect of the compound was based on the survival of the animals. Results are shown on FIG. 10.

[5] = already at 20 and 50 μM concentrations

CC(C)c1cccc(C(C)C)c1N1C(=O)c2c(F)c(F)c(F)c(NCc3cccnc3)c2C1=O [Compound 4a]
inhibition of MCF7 cells (cytotoxic effect) [1]: strongest inhibition
inhibition of HepG2 cells (cytotoxic effect) [2]: strongest inhibition
inhibition of RVH melanoma cells (cytotoxic effect) [3]: strongest inhibition

CC(C)c1cccc(C(C)C)c1N1C(=O)c2c(F)c(F)c(NCc3cccnc3)c(F)c2C1=O [Compound 4b]
effect on MCF7 cells [1]: strong effect
effect on HepG2 cells [2, 5]: strong effect
inhibition of RVH melanoma cells (cytotoxic effect) [3]: strongest inhibition

CC(C)c1cccc(C(C)C)c1N1C(=O)c2c(F)c(F)c(F)c(NCCN)c2C1=O [Compound 5a, 2-(2,6-diisopropylphenyl)-4-(2-amino-ethylamino)-5,6,7-trifluoroisoindole-1,3-dione]
effect on MCF7 cells [1]: strong effect
effect on HepG2 cells ([2]; in the concentration range tested): weak effect
inhibition of RVH melanoma cells (cytotoxic effect) [3]: strongest inhibition

CC(C)c1cccc(C(C)C)c1N1C(=O)c2c(F)c(F)c(NCCN)c(F)c2C1=O [Compound 5b, 2-(2,6-diisopropylphenyl)-5-(2-amino-ethylamino)-4,6,7-trifluoroisoindole-1,3-dione]
proteins binding to the compound (Rab GTPase proteins): interactions with Rab GTPase proteins were identified
effect on RVH melanoma cells ([3]; even at 100 μM concentration): weak effect

CC(C)c1cccc(C(C)C)c1N1C(=O)c2c(F)c(F)c(F)c(NCC(F)(F)F)c2C1=O [Compound 6a, 2-(2,6-diisopropylphenyl)-4,5,6-trifluoro-7-(2,2,2-trifluoroethylamino)isoindole-1,3-dione]
inhibition of MCF7 cells (cytotoxic effect) [1]: strongest inhibition
inhibition of HepG2 cells (cytotoxic effect) [2]: strongest inhibition
inhibition of RVH melanoma cells (cytotoxic effect) [3]: strongest inhibition

CC(C)c1cccc(C(C)C)c1N1C(=O)c2c(F)c(F)c(F)c(NCCCN3CCOCC3)c2C1=O [Compound 7a, 2-(2,6-diisopropylphenyl)-4-(3-morpholino-4-yl-propylamino)-5,6,7-trifluoroisoindole-1,3-dione]
inhibition of MCF7 cells (cytotoxic effect) [1]: strongest inhibition
inhibition of HepG2 cells (cytotoxic effect) [2]: strongest inhibition

CC(C)c1cccc(C(C)C)c1N1C(=O)c2c(F)c(F)c(NCCCN3CCOCC3)c(F)c2C1=O [Compound 7b, 2-(2,6-diisopropylphenyl)-5-(3-morpholino-4-yl-propylamino)-4,6,7-trifluoroisoindole-1,3-dione]
effect on MCF7 cells [1]: strong effect
inhibition of HepG2 cells (cytotoxic effect) [2]: strongest inhibition
effect on HepG2 cells [2, 5]: strong effect
inhibition of RVH melanoma cells (cytotoxic effect) [3]: strongest inhibition

CC(C)c1cccc(C(C)C)c1N1C(=O)c2c(F)c(F)c(F)c(NC3CCCC3)c2C1=O [Compound 9a, 2-(2,6-diisopropylphenyl)-4-(cyclopentylamino)-5,6,7-trifluoroisoindoline-1,3-dione]
survival of the animals [4]: significant increase of the survival
